This passage reports In vivo activity, IC50 and ApoA-1 activity results from patent US10226451B2, “Substituted bicyclic compounds as bromodomain inhibitors” (ZENITH EPIGENETICS LTD, priority 2013, dated 2019).

The subject of assay [1] is OCI-3 AML cells xenograft. The assay can be described thus: In vivo efficacy, acute myeloid leukemia xenograft model using OCI-3 AML cells. Also on record: species or system mouse. Particulars: OCI-3 AML xenograft, nu/nu mice, oral dosing, tumor growth inhibition. As to the method: OCI-3 AML cells (DMSZ) were grown under standard cell culture conditions and (NCr) nu/nu fisol strain of female mice age 6-7 weeks were injected with 10×10^6 cells/animal in 100 μL PBS+100 μL Matrigel in the lower left abdominal flank. By approximately day 18-21 after OCI-3 AML cells injection, mice were randomized based on tumor volume (L×W×H)/2) of average ˜100-300 mm^3. Mice were dosed orally with compound at 30 mg/kg b.i.d on a continuous dosing schedule and at 2.5 to 45 mg/kg q.d. on a 5 day on and 2 day off dosing schedule in EA006 formulation at 10 mL/kg body weight dose volume. Tumor measurements were taken with electronic micro calipers and body weights measured on alternate days beginning from dosing period. The average tumor volumes, percent Tumor Growth Inhibition (TGI) and % change in body weights were compared relative to Vehicle control animals. The means, statistical analysis and the comparison between groups were calculated using Student's t-test in Excel.

The subject of assay [2] is Human AML MV-4-11 cells. In words: Inhibition of cell proliferation in MV4-11 cells (CellTiter Aqueous One). It counts as cell-based. Particulars: 72 h. The procedure, abridged: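 MV4-11 cells at 5×10^4/well in IMDM with 10% FBS were exposed to increasing compound concentrations or 0.1% DMSO, in triplicate, for 72 h at 37 °C. A further 3-4 h with CellTiter Aqueous One reagent followed. A490, blank-corrected and expressed relative to DMSO, gave IC50.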

Assay [3] concerns hApoA-I mRNA in Huh7 cells. The assay can be described thus: Up-regulation of hApoA-1 mRNA transcription in Huh7 cells. Particulars: EC170, Huh7 cells, 48 h. It counts as cell-based, Human. The procedure: In this example, hApoA-I mRNA in tissue culture cells was quantitated to measure the transcriptional up-regulation of hApoA-I when treated with a compound of the present disclosure.
Huh7 cells (2.5×10^5 per well) were plated in a 96-well plate using 100 μL DMEM per well, (Gibco DMEM supplemented with penicillin/streptomycin and 10% FBS), 72 h before the addition of the compound. The cells are treated with increasing concentrations of the compound or DMSO (0.1%), and incubated at 37° C., 5% CO2 for 48 h. Spent media was removed from the Huh-7 cells and placed on ice for immediate use with the “LDH cytotoxicity assay Kit II” from Abcam. The cells remaining in the plate were rinsed with 100 μL PBS. Cells were harvested using the mRNA Catcher PLUS kit according to manufacturer's instructions. The eluted mRNA was then used in a one-step quantitative real-time PCR reaction, using components of the RNA UltraSense™ One-Step Kit (Life Technologies) together with Applied Biosystems TaqMan® primer-probes for hApoA-I and Cyclophilin. Real-time PCR plates were run on a ViiA™7 real time PCR machine (Applied Biosystems), data was analyzed, normalizing the Ct values for hApoA-1 to an internal control, prior to determining the fold induction of each unknown sample, relative to the control.

For assay [4], the system named is hIL-17 mRNA in human peripheral blood mononuclear cells. In words: Inhibition of hIL-17 mRNA transcription in OKT3-stimulated PBMC. Particulars: OKT3 antibody, 6 h, read-out: IL-17 activity. It counts as cell-based. As to the method:
In this example, hIL-17 mRNA in human peripheral blood mononuclear cells were quantitated to measure the transcriptional inhibition of hIL-17 when treated with a compound of the present disclosure.
Human peripheral blood mononuclear cells were plated (2.0×10^5 cells per well) in a 96-well plate in 45 μL OpTimizer T Cell expansion media (Life Technologies) containing 20 ng/ml IL-2 and penicillin/streptomycin. The cells were treated with increasing concentrations of the test compound or DMSO (0.1%), and incubated at 37° C., 5% CO2 for 1 h before addition of 10× stock OKT3 antibody at 10 ug/ml in media. Triplicate wells were used for each concentration. Cells were incubated at 37° C., 5% CO2 for 6 h before the cells were harvested. At time of harvest, cells were pelleted by centrifugation at 800 rpm for 5 min. Cells were harvested using the mRNA Catcher PLUS kit according to manufacturer's instructions. The eluted mRNA was then used in a one-step quantitative real-time PCR reaction, using components of the RNA UltraSense™ One-Step Kit (Life Technologies) together with Applied Biosystems TaqMan® primer-probes for hIL-17 and Cyclophilin. Real-time PCR plates were run on a ViiA™7 real time PCR machine (Applied Biosystems), data was analyzed, normalizing the Ct values for hIL-17 to an internal control, prior to determining the fold induction of each unknown sample, relative to the control.

For assay [5], the system named is MV4-11 cells xenograft. The assay can be described thus: In vivo efficacy, acute myeloid leukemia xenograft model using MV4-11 cells. The note with it: MV4-11 xenograft, nu/nu mice, oral dosing, tumor growth inhibition. Also on record: species or system mouse. The procedure: MV4-11 cells (ATCC) were grown under standard cell culture conditions and (NCr) nu/nu fisol strain of female mice age 6-7 weeks were injected with 5×10^6 cells/animal in 100 μL PBS+100 μL Matrigel in the lower left abdominal flank. By approximately day 18-21 after MV4-11 cells injection, mice were randomized based on tumor volume (L×W×H)/2) of average ˜100-300 mm^3. Mice were dosed orally with compound at 5 to 120 mg/kg b.i.d and/or q.d. on a continuous dosing schedule and at 2.5 to 85 mg/kg q.d. on a 5 day on 2 day off, 100 mg/kg q.d. on a 4 day on and 3 day off, 135 mg/kg q.d. on a 3 day on and 4 day off, 180 mg/kg on a 2 day on and 5 day off and 240 mg/kg on a 1 day on and 6 days off dosing schedules in EA006 formulation at 10 mL/kg body weight dose volume. Tumor measurements were taken with electronic micro calipers and body weights measured on alternate days beginning from dosing period. The average tumor volumes, percent Tumor Growth Inhibition (TGI) and % change in body weights were compared relative to Vehicle control animals. The means, statistical analysis and the comparison between groups were calculated using Student's t-test in Excel.

As for `Cc1noc(C)c1-c1cc(-c2c(C)nn(C)c2C)c2c(c1)[nH]c(=O)n2C` [Example Compound 9, 5-(3,5-dimethylisoxazol-4-yl)-1-methyl-7-(1,3,5-trimethyl-1H-pyrazol-4-yl)-1H-benzo[d]imidazol-2(3H)-one], the In vivo activity entry in assay [1] and in assay [5] was “Active” each time. In addition, the IC50 in assay [2] and in assay [4] was no more than 300 nM in each case. Further, the ApoA-1 activity result in assay [3] was “+++ (EC170 value less than or equal to 0.3 μM were deemed to be highly active (+++))”.
